According to patent US9060512B2, “Biocide compositions (III)” (Cognis IP Management GmbH, priority 2009, dated 2015):

Experiments:
[1] = system: Hemp sesbania (Sesbania exaltata=Bayer Code=SEBEX); assay: Weed control with glyphosate IPA salt, optionally with adjuvant; type: in vivo
Protocol: (§1) Two weeds, Velvet leaf (Abutilion theophrasti=Bayer Code: ABUTH) and Hemp sesbania (Sesbania exaltata=Bayer Code=SEBEX) were treated with a suboptimum rate of 270 g a.e./ha glyphosate IPA salt, optionally in the presence of N,N-Dimethyl levulinic acid amide as an adjuvant (spray volume: 200 l/ha) with three replications over a period of 21 days. Assessments took place for SEBEX after 10 and for ABUTH 20 days after treatment. The efficacy of the biocide/adjuvant composition was determined against a control where the number of weeds in a similar untreated area was set to 0%.

[2] = system: Velvet leaf (Abutilion theophrasti=Bayer Code: ABUTH); assay: as above; type: in vivo; details: 270 g/ha glyphosate IPA salt, spray volume 200 l/ha, 20 days after treatment, untreated area = 0%
Protocol: as §1

Compound | SEBEX Control (weed control) ([1]; 270 g/ha glyphosate IPA salt, spray volume 200 l/ha, 10 days after treatment, untreated area = 0%) [%-rel.] | ABUTH Control (weed control) [2] [%-rel.] | weed control performance of glyphosate on addition of adjuvant ([1]; summary in words, SEBEX and ABUTH)
CC(C)N.O=C(O)CNCP(=O)(O)O [C3, glyphosate IPA salt] | 50 | 82 | –
CC(=O)CCC(=O)N(C)C [Example 6, Levulinic acid dimethylamide] | – | – | improves the weed control performance of glyphosate significantly
